{"source": "patent US12214080B2", "about": "“Micronized lipids” (MCAL Therapeutics Inc., priority 2021, dated 2025)", "key": {"[1]": {"test": "Solubility and general physicochemical properties of MCAL-201", "protocol": "The general and physiochemical properties of MCAL-201 are: • 1,2-EPRG has a molecular weight of 611.05 g/mol • Empirical formula: C39H78O4 • Appearance: White powder • Particle size: 1-10 μm (post micronization) • Hygroscopicity: Low • Chirality: Racemic • Enantiomeric excess: 0 • Melting point: 57° C. • Solubility: Insoluble in water. Soluble in chloroform (40 mg/mL) and castor oil (25 mg/mL)\nHowever, preparation of a water soluble cyclodextrin inclusion complex of MCAL-201 was used in nonclinical efficacy studies. In addition, solutions of MCAL-201 in castor oil which can be emulsified to micron sized liquid particles in aqueous buffers can be used to deliver MCAL-201 directly to the tear film lipid layer."}, "[2]": {"test": "Chemical and isomeric stability (1,2-EPRG to 1,3-EPRG acyl migration), NMR analysis", "format": "physicochemical", "excerpt": "This led to development of the delivery of solid MCAL-201 as a suspension of crystalline or amorphous micronized solid particle suspended in a water-based formulation isotonic with tear. Although MCAL-201 crystalline drug substance floated on phosphate buffered saline (PBS) it could be suspended following micronization to 1-10 micron particles which could be stably suspended in PBS with the aid of polysorbate 80 as a wetting agent and xanthan gum to adjust density and viscosity of the drug product."}, "[3]": {"test": "Physical stability of the micronized suspension toward separation of particles", "format": "physicochemical", "conditions": "suspension in PBS with polysorbate 80 and xanthan gum, room temperature", "from_the_text": "Treatment of these particles with poly-sorbate 80 (0.3% w/w) as a wetting agent affords a suspension of the micronized particles in a mixture of xanthan gum (0.1-0.3% w/w, See FIG. 3) in Phosphate Buffered Saline (PBS, pH 6-8, 260-320 mOsm/L) suitable for administration as a stably suspended topical drop or suspension for injection."}, "[4]": {"system": "naïve dogs", "test": "Non-GLP topical ocular dose range-finding toxicity and tolerability study (SPOTS, IOP, STT)", "format": "in vivo", "protocol": "(§1) A non-GLP topical ocular administration dose range-finding pharmacology and toxicity study of MCAL-201 was conducted in naïve dogs. The primary study objective was to assess the tolerability of topical ocular administration of MCAL-201 in dogs with a secondary objective to obtain data supporting pharmacological activity in healthy dogs.\n(§2) The effects of vehicle and 0.1, 0.5, 1, 3 and 10 mg/mL MCAL-201 delivered as a 35 μL drop bilaterally QD (0.0035, 0.0175, 0.035, 0.105 and 0.35 mg/eye/day) were evaluated in Part I. The dosing regimen is summarized in 3.\n(§3) Scoring of the ocular surface and anterior segment of the eye was performed using the SPOTS system by a board-certified veterinary ophthalmologist. SPOTS was performed for each concentration evaluated. To measure TBUT, fluorescein was instilled in the eye and the eye was manually closed and then gently opened to simulate a blink. The time interval between the opening of the eye and the first sign of disruption of the uniform tear film, as indicated by breaks in the fluorescein was recorded in seconds. The procedure was repeated three times on both eyes, first right than left eye. After BID dosing with 10 mg/mL MCAL-201, SPOTS was also performed at 48 hours after the last dose."}, "[5]": {"system": "healthy dogs", "test": "Tear film break-up time (TBUT) after topical ocular administration", "format": "in vivo, dog", "conditions": "5 healthy adult dogs, single administration (FIG. 6)", "protocol": "as §1, §2, §3"}}, "note": "Entries after “also recorded” stand apart in the source; their conditions may differ.", "data": [{"compound": "CCCCCCCCCCCCCCCCCCCCOCC(CO)OC(=O)CCCCCCCCCCCCCCC", "note": "(racemic) [MCAL-201, 1-O-eicosanyl-2-palmitoyl-rac-glycerol]", "values": [{"measurement": "Hygroscopicity", "setting": "[1]", "result": "Low"}, {"measurement": "Solubility in water", "setting": "[1]; water", "result": "Insoluble; also recorded: extreme insolubility"}, {"measurement": "1,3-EPRG isomeric content", "setting": "[2]; after jet mill micronization, NMR (FIG. 4)", "result": 1.15, "unit": "mol %"}, {"measurement": "Long-term chemical stability in the liquid solution phase (acyl migration of the palmitoyl group from 2 to 3 position)", "setting": "[2]; liquid solution phase", "result": "lacked long-term chemical stability"}, {"measurement": "Isomeric stability in the suspension formulation, duration demonstrated", "setting": "[2]; micronized MCAL-201 in suspension formulation, room temperature", "result": 6, "unit": "weeks"}, {"measurement": "1,3-EPRG isomeric content", "setting": "[2]; solid micronized suspension stored at room temperature for 6 weeks, NMR (FIG. 5)", "result": 0.0991, "unit": "mol %"}, {"measurement": "Isomeric stability in the solid phase compared with solution", "setting": "[2]; solid phase", "result": "far greater than in solution"}, {"measurement": "Physical stability of the micronized suspension (floating, sinking or aggregation), duration demonstrated", "setting": "[3]", "result": "> 6", "unit": "months"}, {"measurement": "Ocular or systemic adverse events", "setting": "[4]; any time or concentration evaluated (up to 10 mg/mL OU BID for 48 hours)", "result": "no ocular or systemic adverse events"}, {"measurement": "Tolerability", "setting": "[4]; topical ocular 35 μL drop, up to 10 mg/mL OU BID for 48 hours", "result": "well tolerated"}, {"measurement": "Tear film break-up time (TBUT)", "setting": "[5]", "result": "extended TBUT"}]}]}
